Tests used:
Assay in all cases: relative viability (nuclei count vs DMSO), 5 days (fraction); higher = more cells survive
Salubrinal + Palbociclib = compound: O=C(/C=C/c1ccccc1)NC(NC(=S)Nc1cccc2cccnc12)C(Cl)(Cl)Cl [Salubrinal] + CC(=O)c1c(C)c2cnc(Nc3ccc(N4CCNCC4)cn3)nc2n(C2CCCC2)c1=O [Palbociclib] (partner 0.5 µM)
In short: (§1)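 After 5 days of treatment, lung cancer cells in 1536-well plates were fixed and stained in a single step (final 0.05% Triton X-100, 1% formaldehyde, 1 ug/ml Hoechst) and their nuclei counted on 4× images. Treatment had been applied by pin tool the day after seeding as one drug alone or as a fixed anchor-drug dose with five library-drug doses (not always all listed) in √10 steps. Relative viability is the nuclei count of treated wells divided by that of vehicle wells, and values are medians of duplicate plates.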

Salubrinal + Alpelisib = compound: O=C(/C=C/c1ccccc1)NC(NC(=S)Nc1cccc2cccnc12)C(Cl)(Cl)Cl [Salubrinal] + Cc1nc(NC(=O)N2CCC[C@H]2C(N)=O)sc1-c1ccnc(C(C)(C)C(F)(F)F)c1 [Alpelisib] (partner 2 µM)
In short: as §1

Salubrinal + Tozasertib = compound: O=C(/C=C/c1ccccc1)NC(NC(=S)Nc1cccc2cccnc12)C(Cl)(Cl)Cl [Salubrinal] + Cc1cc(Nc2cc(N3CCN(C)CC3)nc(Sc3ccc(NC(=O)C4CC4)cc3)n2)n[nH]1 [Tozasertib] (partner 0.1 µM)
In short: as §1

Salubrinal + Phenformin = compound: O=C(/C=C/c1ccccc1)NC(NC(=S)Nc1cccc2cccnc12)C(Cl)(Cl)Cl [Salubrinal] + N=C(N)NC(=N)NCCc1ccccc1 [Phenformin] (partner 250 µM)
In short: as §1

## EKVX
Salubrinal + Palbociclib; first compound 0.08 µM
  relative viability: 0.408
Salubrinal + Palbociclib; first compound 0.253 µM
  relative viability: 0.457
Salubrinal + Palbociclib; first compound 0.8 µM
  relative viability: 0.791
Salubrinal + Palbociclib; first compound 2.53 µM
  relative viability: 0.412
Salubrinal + Palbociclib; first compound 8 µM
  relative viability: 0.37
Salubrinal + Alpelisib; first compound 0.08 µM
  relative viability: 1.14
Salubrinal + Alpelisib; first compound 0.253 µM
  relative viability: 0.729
Salubrinal + Alpelisib; first compound 0.8 µM
  relative viability: 1.01
Salubrinal + Alpelisib; first compound 2.53 µM
  relative viability: 0.887
Salubrinal + Alpelisib; first compound 8 µM
  relative viability: 0.88
Salubrinal + Tozasertib; first compound 0.08 µM
  relative viability: 0.437
Salubrinal + Tozasertib; first compound 0.253 µM
  relative viability: 0.387
Salubrinal + Tozasertib; first compound 0.8 µM
  relative viability: 0.536
Salubrinal + Tozasertib; first compound 2.53 µM
  relative viability: 0.382
Salubrinal + Tozasertib; first compound 8 µM
  relative viability: 0.321
Salubrinal + Phenformin; first compound 0.08 µM
  relative viability: 0.228
Salubrinal + Phenformin; first compound 0.253 µM
  relative viability: 0.23
Salubrinal + Phenformin; first compound 0.8 µM
  relative viability: 0.236
Salubrinal + Phenformin; first compound 2.53 µM
  relative viability: 0.203
Salubrinal + Phenformin; first compound 8 µM
  relative viability: 0.228

## HOP-62
Salubrinal + Palbociclib; first compound 0.08 µM
  relative viability: 0.359
Salubrinal + Palbociclib; first compound 0.253 µM
  relative viability: 0.399
Salubrinal + Palbociclib; first compound 0.8 µM
  relative viability: 0.53
Salubrinal + Palbociclib; first compound 2.53 µM
  relative viability: 0.457
Salubrinal + Palbociclib; first compound 8 µM
  relative viability: 0.481
Salubrinal + Alpelisib; first compound 0.08 µM
  relative viability: 0.861
Salubrinal + Alpelisib; first compound 0.253 µM
  relative viability: 1.26
Salubrinal + Alpelisib; first compound 0.8 µM
  relative viability: 0.95
Salubrinal + Alpelisib; first compound 2.53 µM
  relative viability: 1.03
Salubrinal + Alpelisib; first compound 8 µM
  relative viability: 1.21
Salubrinal + Tozasertib; first compound 0.08 µM
  relative viability: 0.334
Salubrinal + Tozasertib; first compound 0.253 µM
  relative viability: 0.378
Salubrinal + Tozasertib; first compound 0.8 µM
  relative viability: 0.409
Salubrinal + Tozasertib; first compound 2.53 µM
  relative viability: 0.347
Salubrinal + Tozasertib; first compound 8 µM
  relative viability: 0.334
Salubrinal + Phenformin; first compound 0.08 µM
  relative viability: 0.85
Salubrinal + Phenformin; first compound 0.253 µM
  relative viability: 0.491
Salubrinal + Phenformin; first compound 0.8 µM
  relative viability: 0.799
Salubrinal + Phenformin; first compound 2.53 µM
  relative viability: 0.702
Salubrinal + Phenformin; first compound 8 µM
  relative viability: 0.53

## NCI-H2126
Salubrinal + Palbociclib; first compound 0.08 µM
  relative viability: 0.382
Salubrinal + Palbociclib; first compound 0.253 µM
  relative viability: 0.383
Salubrinal + Palbociclib; first compound 0.8 µM
  relative viability: 0.363
Salubrinal + Palbociclib; first compound 2.53 µM
  relative viability: 0.388
Salubrinal + Palbociclib; first compound 8 µM
  relative viability: 0.386
Salubrinal + Alpelisib; first compound 0.08 µM
  relative viability: 0.808
Salubrinal + Alpelisib; first compound 0.253 µM
  relative viability: 0.767
Salubrinal + Alpelisib; first compound 0.8 µM
  relative viability: 0.812
Salubrinal + Alpelisib; first compound 2.53 µM
  relative viability: 0.727
Salubrinal + Alpelisib; first compound 8 µM
  relative viability: 0.725
Salubrinal + Tozasertib; first compound 0.08 µM
  relative viability: 0.979
Salubrinal + Tozasertib; first compound 0.253 µM
  relative viability: 0.801
Salubrinal + Tozasertib; first compound 0.8 µM
  relative viability: 0.968
Salubrinal + Tozasertib; first compound 2.53 µM
  relative viability: 0.827
Salubrinal + Tozasertib; first compound 8 µM
  relative viability: 0.666
Salubrinal + Phenformin; first compound 0.08 µM
  relative viability: 0.512
Salubrinal + Phenformin; first compound 0.253 µM
  relative viability: 0.537
Salubrinal + Phenformin; first compound 0.8 µM
  relative viability: 0.562
Salubrinal + Phenformin; first compound 2.53 µM
  relative viability: 0.563
Salubrinal + Phenformin; first compound 8 µM
  relative viability: 0.519

## SW 1573
Salubrinal + Palbociclib; first compound 0.08 µM
  relative viability: 0.445
Salubrinal + Palbociclib; first compound 0.253 µM
  relative viability: 0.355
Salubrinal + Palbociclib; first compound 0.8 µM
  relative viability: 0.378
Salubrinal + Palbociclib; first compound 2.53 µM
  relative viability: 0.374
Salubrinal + Palbociclib; first compound 8 µM
  relative viability: 0.3
Salubrinal + Alpelisib; first compound 0.08 µM
  relative viability: 0.802
Salubrinal + Alpelisib; first compound 0.253 µM
  relative viability: 0.909
Salubrinal + Alpelisib; first compound 0.8 µM
  relative viability: 0.827
Salubrinal + Alpelisib; first compound 2.53 µM
  relative viability: 1.04
Salubrinal + Alpelisib; first compound 8 µM
  relative viability: 0.604
Salubrinal + Tozasertib; first compound 0.08 µM
  relative viability: 0.176
Salubrinal + Tozasertib; first compound 0.253 µM
  relative viability: 0.172
Salubrinal + Tozasertib; first compound 0.8 µM
  relative viability: 0.155
Salubrinal + Tozasertib; first compound 2.53 µM
  relative viability: 0.194
Salubrinal + Tozasertib; first compound 8 µM
  relative viability: 0.151
Salubrinal + Phenformin; first compound 0.08 µM
  relative viability: 0.388
Salubrinal + Phenformin; first compound 0.253 µM
  relative viability: 0.327
Salubrinal + Phenformin; first compound 0.8 µM
  relative viability: 0.389
Salubrinal + Phenformin; first compound 2.53 µM
  relative viability: 0.332
Salubrinal + Phenformin; first compound 8 µM
  relative viability: 0.299

## NCI-H1944
Salubrinal + Palbociclib; first compound 0.08 µM
  relative viability: 0.394
Salubrinal + Palbociclib; first compound 0.253 µM
  relative viability: 0.372
Salubrinal + Palbociclib; first compound 0.8 µM
  relative viability: 0.315
Salubrinal + Palbociclib; first compound 2.53 µM
  relative viability: 0.299
Salubrinal + Palbociclib; first compound 8 µM
  relative viability: 0.337
Salubrinal + Alpelisib; first compound 0.08 µM
  relative viability: 0.912
Salubrinal + Alpelisib; first compound 0.253 µM
  relative viability: 0.912
Salubrinal + Alpelisib; first compound 0.8 µM
  relative viability: 0.871
Salubrinal + Alpelisib; first compound 2.53 µM
  relative viability: 0.871
Salubrinal + Alpelisib; first compound 8 µM
  relative viability: 0.795
Salubrinal + Tozasertib; first compound 0.08 µM
  relative viability: 0.269
Salubrinal + Tozasertib; first compound 0.253 µM
  relative viability: 0.269
Salubrinal + Tozasertib; first compound 0.8 µM
  relative viability: 0.276
Salubrinal + Tozasertib; first compound 2.53 µM
  relative viability: 0.229
Salubrinal + Tozasertib; first compound 8 µM
  relative viability: 0.278
Salubrinal + Phenformin; first compound 0.08 µM
  relative viability: 0.198
Salubrinal + Phenformin; first compound 0.253 µM
  relative viability: 0.191
Salubrinal + Phenformin; first compound 0.8 µM
  relative viability: 0.214
Salubrinal + Phenformin; first compound 2.53 µM
  relative viability: 0.185
Salubrinal + Phenformin; first compound 8 µM
  relative viability: 0.178

## EPLC-272H
Salubrinal + Palbociclib; first compound 0.08 µM
  relative viability: 0.314
Salubrinal + Palbociclib; first compound 0.253 µM
  relative viability: 0.295
Salubrinal + Palbociclib; first compound 0.8 µM
  relative viability: 0.293
Salubrinal + Palbociclib; first compound 2.53 µM
  relative viability: 0.288
Salubrinal + Palbociclib; first compound 8 µM
  relative viability: 0.312
Salubrinal + Alpelisib; first compound 0.08 µM
  relative viability: 1.01
Salubrinal + Alpelisib; first compound 0.253 µM
  relative viability: 0.798
Salubrinal + Alpelisib; first compound 0.8 µM
  relative viability: 1.07
Salubrinal + Alpelisib; first compound 2.53 µM
  relative viability: 0.996
Salubrinal + Alpelisib; first compound 8 µM
  relative viability: 0.787
Salubrinal + Tozasertib; first compound 0.08 µM
  relative viability: 0.426
Salubrinal + Tozasertib; first compound 0.253 µM
  relative viability: 0.249
Salubrinal + Tozasertib; first compound 0.8 µM
  relative viability: 0.258
Salubrinal + Tozasertib; first compound 2.53 µM
  relative viability: 0.243
Salubrinal + Tozasertib; first compound 8 µM
  relative viability: 0.242
Salubrinal + Phenformin; first compound 0.08 µM
  relative viability: 0.256
Salubrinal + Phenformin; first compound 0.253 µM
  relative viability: 0.236
Salubrinal + Phenformin; first compound 0.8 µM
  relative viability: 0.342
Salubrinal + Phenformin; first compound 2.53 µM
  relative viability: 0.259
Salubrinal + Phenformin; first compound 8 µM
  relative viability: 0.282

## PC-3 [JPC-3]
Salubrinal + Palbociclib; first compound 0.08 µM
  relative viability: 0.514
Salubrinal + Palbociclib; first compound 0.253 µM
  relative viability: 0.579
Salubrinal + Palbociclib; first compound 0.8 µM
  relative viability: 0.539
Salubrinal + Palbociclib; first compound 2.53 µM
  relative viability: 0.28
Salubrinal + Palbociclib; first compound 8 µM
  relative viability: 0.629
Salubrinal + Alpelisib; first compound 0.08 µM
  relative viability: 1.08
Salubrinal + Alpelisib; first compound 0.253 µM
  relative viability: 0.98
Salubrinal + Alpelisib; first compound 0.8 µM
  relative viability: 1.13
Salubrinal + Alpelisib; first compound 2.53 µM
  relative viability: 1.07
Salubrinal + Alpelisib; first compound 8 µM
  relative viability: 1.03
Salubrinal + Tozasertib; first compound 0.08 µM
  relative viability: 1.12
Salubrinal + Tozasertib; first compound 0.253 µM
  relative viability: 0.649
Salubrinal + Tozasertib; first compound 0.8 µM
  relative viability: 0.857
Salubrinal + Tozasertib; first compound 2.53 µM
  relative viability: 0.896
Salubrinal + Tozasertib; first compound 8 µM
  relative viability: 0.831
Salubrinal + Phenformin; first compound 0.08 µM
  relative viability: 0.471
Salubrinal + Phenformin; first compound 0.253 µM
  relative viability: 0.448
Salubrinal + Phenformin; first compound 0.8 µM
  relative viability: 0.529
Salubrinal + Phenformin; first compound 2.53 µM
  relative viability: 0.475
Salubrinal + Phenformin; first compound 8 µM
  relative viability: 0.467

## NCI-H650
Salubrinal + Palbociclib; first compound 0.08 µM
  relative viability: 0.346
Salubrinal + Palbociclib; first compound 0.253 µM
  relative viability: 0.3
Salubrinal + Palbociclib; first compound 0.8 µM
  relative viability: 0.355
Salubrinal + Palbociclib; first compound 2.53 µM
  relative viability: 0.332
Salubrinal + Palbociclib; first compound 8 µM
  relative viability: 0.298
Salubrinal + Alpelisib; first compound 0.08 µM
  relative viability: 1.29
Salubrinal + Alpelisib; first compound 0.253 µM
  relative viability: 1.14
Salubrinal + Alpelisib; first compound 0.8 µM
  relative viability: 1.14
Salubrinal + Alpelisib; first compound 2.53 µM
  relative viability: 1.11
Salubrinal + Alpelisib; first compound 8 µM
  relative viability: 1.04
Salubrinal + Tozasertib; first compound 0.08 µM
  relative viability: 0.81
Salubrinal + Tozasertib; first compound 0.253 µM
  relative viability: 0.768
Salubrinal + Tozasertib; first compound 0.8 µM
  relative viability: 0.798
Salubrinal + Tozasertib; first compound 2.53 µM
  relative viability: 0.687
Salubrinal + Tozasertib; first compound 8 µM
  relative viability: 0.704
Salubrinal + Phenformin; first compound 0.08 µM
  relative viability: 0.456
Salubrinal + Phenformin; first compound 0.253 µM
  relative viability: 0.514
Salubrinal + Phenformin; first compound 0.8 µM
  relative viability: 0.509
Salubrinal + Phenformin; first compound 2.53 µM
  relative viability: 0.499
Salubrinal + Phenformin; first compound 8 µM
  relative viability: 0.417

Reference: the supplement of paper PMC10307832
